In ChEMBL document CHEMBL4814065, “Taurultams incorporating arylsulfonamide: First in vitro inhibition studies of α-, β- and γ-class Carbonic Anhydrases from Vibrio cholerae and Burkholderia pseudomallei” (Eur J Med Chem, 2021):

Legend:
[1] = Selectivity index, ratio of Ki for Vibrio cholerae alpha carbonic anhydrase to Ki for human carbonic anhydrase 2
[2] = Selectivity index, ratio of Ki for Vibrio cholerae beta carbonic anhydrase to Ki for human carbonic anhydrase 2
[3] = Inhibition of Vibrio cholerae alpha carbonic anhydrase preincubated with enzyme for 15 mins by phenol red-based stopped-flow CO2 hydration assay
[4] = Inhibition of Vibrio cholerae beta carbonic anhydrase preincubated with enzyme for 15 mins by phenol red-based stopped-flow CO2 hydration assay
[5] = Inhibition of Vibrio cholerae gamma carbonic anhydrase preincubated with enzyme for 15 mins by phenol red-based stopped-flow CO2 hydration assay
[6] = Inhibition of Burkholderia pseudomallei beta carbonic anhydrase preincubated with enzyme for 15 mins by phenol red-based stopped-flow CO2 hydration assay
[7] = Inhibition of Burkholderia pseudomallei gamma carbonic anhydrase preincubated with enzyme for 15 mins by phenol red-based stopped-flow CO2 hydration assay
[8] = Selectivity index, ratio of Ki for Vibrio cholerae gamma carbonic anhydrase to Ki for human carbonic anhydrase 2
[9] = Selectivity index, ratio of Ki for Burkholderia pseudomallei beta carbonic anhydrase to Ki for human carbonic anhydrase 2
[10] = Selectivity index, ratio of Ki for Burkholderia pseudomallei gamma carbonic anhydrase to Ki for human carbonic anhydrase 2

## NS(=O)(=O)c1ccc(CCN2CN(Cc3c(F)cccc3F)CCS2(=O)=O)cc1
[1]
  Ratio Ki: 0.14
[2]
  Ratio Ki: 16.9
[3]
  Ki: 8 nM
[4]
  Ki: 952 nM
[5]
  Ki: 8820 nM
[6]
  Ki: 393 nM
[7]
  Ki: 19.5 nM
[8]
  Ratio Ki: 156
[9]
  Ratio Ki: 7
[10]
  Ratio Ki: 0.3

## NS(=O)(=O)c1ccc(N2CN(Cc3c(F)c(F)c(F)c(F)c3F)CCS2(=O)=O)cc1
[3]
  Ki: 8.5 nM
[4]
  Ki: 4440 nM
[5]
  Ki: 8110 nM
[6]
  Ki: 81.8 nM
[7]
  Ki: 824 nM

## NS(=O)(=O)c1ccc(N2CCCCS2(=O)=O)cc1
[7]
  Ki: > 50000 nM

## NS(=O)(=O)c1ccc(N2CN(Cc3cccc(Cl)c3)CCS2(=O)=O)cc1
[3]
  Ki: 37.7 nM
[4]
  Ki: 3970 nM
[5]
  Ki: 6770 nM
[6]
  Ki: 416 nM
[7]
  Ki: 68.7 nM
